Test results from patent US12398154B2, “Azaquinazoline pan-KRas inhibitors” (Mirati Therapeutics, Inc., priority 2020, dated 2025).

Tests used:
[1] = test system: pERK in H460 cells; assay: Inhibition of KRas phosphorylation of ERK (Cisbio HTRF pERK assay); conditions: Homo sapiens, NCI-H460, read-out: Inhibition (HTRF IC50) of KRas-mediated Phosphorylation of ERK, H460
[2] = test system: pERK in MKN1 cells; assay: as above; conditions: Homo sapiens, MKN-1, 3 h, read-out: Inhibition (HTRF IC50) of KRas-mediated Phosphorylation of ERK, MKN1
[3] = test system: pERK in H727 cells; assay: as above; conditions: Homo sapiens, NCI-H727, read-out: Inhibition (HTRF IC50) of KRas-mediated Phosphorylation of ERK, H727
[4] = molecular target: KRas G12R (Homo sapiens, UniProt P01116, G12R); assay: biochemical;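 also: TR-FRET displacement assay of compound binding to KRas, read after one hour at room temperature, potency from a four-parameter fit of percent-of-control values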
[5] = molecular target: KRas G12D (Homo sapiens, UniProt P01116, G12D); assay: biochemical;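 also: TR-FRET displacement binding assay on KRas, read after a one-hour incubation at room temperature, IC50 fitted from percent-of-control values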
[6] = test system: pERK in PSN1 cells; assay: Inhibition of KRas phosphorylation of ERK (Cisbio HTRF pERK assay); conditions: Homo sapiens, PSN1, 3 h, read-out: Inhibition (HTRF IC50) of KRas-mediated Phosphorylation of ERK, PSN1
[7] = molecular target: KRas G12V (Homo sapiens, UniProt P01116, G12V); assay: biochemical;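 also: KRas binding measured by TR-FRET displacement at room temperature, IC50 fitted from percent of control values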
[8] = test system: pERK in ASPC1 cells; assay: Inhibition of KRas phosphorylation of ERK (Cisbio HTRF pERK assay); conditions: Homo sapiens, ASPC1, read-out: Inhibition (HTRF IC50) of KRas-mediated Phosphorylation of ERK, AsPC-1
[9] = test system: pERK in HCT116 cells; assay: as above; conditions: Homo sapiens, HCT-116, read-out: Inhibition (HTRF IC50) of KRas-mediated Phosphorylation of ERK, HCT116
[10] = molecular target: KRas WT (Homo sapiens, UniProt P01116); assay: biochemical;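 also: binding to KRas read as TR-FRET displacement after a one-hour room-temperature incubation, IC50 derived from percent-of-control values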
[11] = molecular target: T1, KRas Q61H (Homo sapiens, UniProt P01116, Q61H); assay: KRas binding assay (TR-FRET displacement);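 also: TR-FRET signal read after one hour at room temperature, IC50 derived by four-parameter fitting of percent-of-control values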
T1 construct: Biotinylated KRas (corresponding to amino acids 1-169, produced at Accelegan Inc.); biotin (biotinylated); purchased Accelegan Inc

[12] = molecular target: T2, KRas G13D (Homo sapiens, UniProt P01116, G13D); assay: KRas binding assay (TR-FRET displacement);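 also: One-hour room temperature incubation before TR-FRET reading, IC50 from a four-parameter curve fit to percent-of-control data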
T2 construct: Biotinylated KRas (corresponding to amino acids 1-169, produced at Accelegan Inc.); biotin (biotinylated); purchased Accelegan Inc

[13] = molecular target: KRas G12A (Homo sapiens, UniProt P01116, G12A); assay: biochemical;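 also: binding to KRas measured by TR-FRET displacement after one hour at room temperature, IC50 from a four-parameter fit of percent-of-control values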
[14] = molecular target: KRas G12C (Homo sapiens, UniProt P01116, G12C); assay: biochemical;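 also: binding to KRas assessed by TR-FRET displacement after one hour incubation at room temperature, potency fitted from percent-of-control values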
[15] = molecular target: KRas G12S (Homo sapiens, UniProt P01116, G12S); assay: biochemical;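 also: TR-FRET displacement binding to KRas, read after one hour incubation at room temperature, IC50 from four-parameter fit of percent of control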
Chain of KRas G12S (P01116 1-169 isoform P01116-2 G12S): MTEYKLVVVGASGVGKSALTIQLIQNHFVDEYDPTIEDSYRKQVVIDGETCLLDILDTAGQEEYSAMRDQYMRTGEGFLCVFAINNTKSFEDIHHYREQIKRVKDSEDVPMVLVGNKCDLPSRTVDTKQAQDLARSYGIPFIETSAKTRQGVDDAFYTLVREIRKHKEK

Chain of KRas G12C (P01116 1-169 isoform P01116-2 G12C): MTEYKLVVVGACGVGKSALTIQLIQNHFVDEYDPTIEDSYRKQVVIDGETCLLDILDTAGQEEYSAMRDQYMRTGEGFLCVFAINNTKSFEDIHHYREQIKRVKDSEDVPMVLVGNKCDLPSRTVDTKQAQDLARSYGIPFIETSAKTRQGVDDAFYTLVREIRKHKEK
T1 sequence (P01116 1-169 isoform P01116-2 Q61H): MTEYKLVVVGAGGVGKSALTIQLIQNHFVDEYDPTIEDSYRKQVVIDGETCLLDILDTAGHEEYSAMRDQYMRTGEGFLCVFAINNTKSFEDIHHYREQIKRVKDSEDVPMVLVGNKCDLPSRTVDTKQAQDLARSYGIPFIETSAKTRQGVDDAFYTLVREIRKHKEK
Chain of KRas G12V (P01116 1-169 isoform P01116-2 G12V): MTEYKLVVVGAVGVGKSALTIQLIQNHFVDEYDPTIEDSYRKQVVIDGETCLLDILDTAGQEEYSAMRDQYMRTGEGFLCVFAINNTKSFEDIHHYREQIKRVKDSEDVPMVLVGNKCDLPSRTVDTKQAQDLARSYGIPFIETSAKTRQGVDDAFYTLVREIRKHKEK
Chain of KRas G12D (P01116 1-169 isoform P01116-2 G12D): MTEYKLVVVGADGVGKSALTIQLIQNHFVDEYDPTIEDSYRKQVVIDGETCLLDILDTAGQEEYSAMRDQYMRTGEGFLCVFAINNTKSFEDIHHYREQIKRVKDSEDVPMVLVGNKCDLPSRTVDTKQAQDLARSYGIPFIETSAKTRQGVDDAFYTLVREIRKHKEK
Chain of KRas G12A (P01116 1-169 isoform P01116-2 G12A): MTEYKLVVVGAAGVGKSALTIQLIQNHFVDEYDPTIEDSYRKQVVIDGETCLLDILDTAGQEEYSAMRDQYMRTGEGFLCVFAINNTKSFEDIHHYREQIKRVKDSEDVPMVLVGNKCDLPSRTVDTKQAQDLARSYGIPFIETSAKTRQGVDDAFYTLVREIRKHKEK
T2 sequence (P01116 1-169 isoform P01116-2 G13D): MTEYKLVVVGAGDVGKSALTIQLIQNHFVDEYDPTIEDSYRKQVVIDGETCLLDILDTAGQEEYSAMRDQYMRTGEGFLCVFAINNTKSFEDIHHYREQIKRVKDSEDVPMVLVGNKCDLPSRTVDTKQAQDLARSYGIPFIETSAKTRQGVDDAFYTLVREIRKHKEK
Chain of KRas WT (P01116 1-169 isoform P01116-2): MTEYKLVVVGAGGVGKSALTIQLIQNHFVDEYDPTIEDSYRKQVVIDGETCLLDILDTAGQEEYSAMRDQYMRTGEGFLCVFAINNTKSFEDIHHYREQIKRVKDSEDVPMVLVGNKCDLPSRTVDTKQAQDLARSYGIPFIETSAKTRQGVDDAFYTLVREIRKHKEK
Chain of KRas G12R (P01116 1-169 isoform P01116-2 G12R): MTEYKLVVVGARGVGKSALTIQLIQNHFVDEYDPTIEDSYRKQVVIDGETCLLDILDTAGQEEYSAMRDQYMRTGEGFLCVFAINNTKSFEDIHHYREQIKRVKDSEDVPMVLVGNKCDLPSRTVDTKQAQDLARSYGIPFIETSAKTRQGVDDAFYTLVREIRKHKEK

Structure (SMILES): CCc1c(F)ccc2cc(O)cc(-c3ncc4c(N5CCCc6nn(C(=O)NC(C)C)cc6C5)nc(OC[C@@]56CCCN5C[C@H](F)C6)nc4c3F)c12 [Example 479, 5-(7-(8-ethyl-7-fluoro-3-hydroxynaphthalen-1-yl)-8-fluoro-2-(((2R,7aS)-2-fluorohexahydro-1H-pyrrolizin-7a-yl)methoxy)pyrido[4,3-d]pyrimidin-4-yl)-N-isopropyl-5,6,7,8-tetrahydropyrazolo[4,3-c]azepine-2(4H)-carboxamide]
- IC50 [1]: 987 nM
- IC50 [2]: 328 nM
- IC50 [3]: 115 nM
- IC50 [4]: 12 nM
- IC50 [5]: 5 nM
- IC50 [6]: ≥ 10000 nM
- IC50 [7]: 4 nM
- IC50 [8]: 203 nM

Structure (SMILES): CCc1c(F)ccc2cc(O)cc(-c3ncc4c(N5CCCCC(O)C5)nc(OC[C@@]56CCCN5C[C@H](F)C6)nc4c3F)c12 (stereo partly drawn) [Example 347, 1-(7-(8-ethyl-7-fluoro-3-hydroxynaphthalen-1-yl)-8-fluoro-2-(((2R,7aS)-2-fluorohexahydro-1H-pyrrolizin-7a-yl)methoxy)pyrido[4,3-d]pyrimidin-4-yl)azepan-3-ol]
- IC50 [1]: 127 nM
- IC50 [2]: 98 nM
- IC50 [3]: 73 nM
- IC50 [4]: 3 nM
- IC50 [5]: 3 nM
- IC50 [6]: 4460 nM
- IC50 [7]: 3 nM
- IC50 [8]: 118 nM
- IC50 [9]: 195 nM

Structure (SMILES): CCc1c(F)ccc2cc(O)cc(-c3ncc4c(NCc5cc(C(=O)N(C)C)nn5C)nc(OC[C@@]56CCCN5C[C@H](F)C6)nc4c3F)c12 [Example 483, 5-(((7-(8-ethyl-7-fluoro-3-hydroxynaphthalen-1-yl)-8-fluoro-2-(((2R,7aS)-2-fluorotetrahydro-1H-pyrrolizin-7a(5H)-yl)methoxy)pyrido[4,3-d]pyrimidin-4-yl)amino)methyl)-N,N,1-trimethyl-1H-pyrazole-3-carboxamide]
- IC50 [1]: 1590 nM
- IC50 [2]: 83 nM
- IC50 [3]: 339 nM
- IC50 [4]: ≤ 2 nM
- IC50 [5]: ≤ 2 nM
- IC50 [6]: ≥ 10000 nM
- IC50 [7]: ≤ 2 nM
- IC50 [8]: 890 nM

Structure (SMILES): Fc1c(-c2cccc3cccc(Cl)c23)ncc2c(N3CCCC(n4cccn4)C3)nc(OCC34CCCN3CCC4)nc12 (stereo not shown) [Example 109, 4-(3-(1H-pyrazol-1-yl)piperidin-1-yl)-7-(8-chloronaphthalen-1-yl)-8-fluoro-2-((tetrahydro-1H-pyrrolizin-7a(5H)-yl)methoxy)pyrido[4,3-d]pyrimidine]
- IC50 [10]: 3990 nM
- IC50 [11]: 4940 nM
- IC50 [12]: 4340 nM
- IC50 [4]: 4110 nM
- IC50 [5]: 10200 nM
- IC50 [13]: 4280 nM
- IC50 [14]: 4250 nM
- IC50 [7]: 7430 nM
- IC50 [15]: 7390 nM

Structure (SMILES): Fc1c(-c2cccc3cccc(F)c23)ncc2c(N3CCCC4(CC4)C3)nc(OCC34CCCN3CCC4)nc12 [Example 114, 8-fluoro-7-(8-fluoronaphthalen-1-yl)-4-(5-azaspiro[2.5]octan-5-yl)-2-((tetrahydro-1H-pyrrolizin-7a(5H)-yl)methoxy)pyrido[4,3-d]pyrimidine]
- IC50 [10]: 2710 nM
- IC50 [11]: 43300 nM
- IC50 [12]: 29900 nM
- IC50 [4]: 3750 nM
- IC50 [5]: 4380 nM
- IC50 [13]: 2640 nM
- IC50 [14]: 2480 nM
- IC50 [7]: 2860 nM
- IC50 [15]: 2810 nM

Structure (SMILES): CN(Cc1c[nH]c2ncccc12)c1nc(OCC23CCCN2CCC3)nc2c(F)c(-c3cccc4cccc(F)c34)ncc12 [Example 223, N-((1H-pyrrolo[2,3-b]pyridin-3-yl)methyl)-8-fluoro-7-(8-fluoronaphthalen-1-yl)-N-methyl-2-((tetrahydro-1H-pyrrolizin-7a(5H)-yl)methoxy)pyrido[4,3-d]pyrimidin-4-amine]
- IC50 [10]: 5600 nM
- IC50 [11]: 8650 nM
- IC50 [12]: 6870 nM
- IC50 [4]: 665 nM
- IC50 [5]: 21100 nM
- IC50 [13]: 1360 nM
- IC50 [14]: 1190 nM
- IC50 [7]: 930 nM
- IC50 [15]: 1800 nM

Structure (SMILES): CS(=O)(=O)C1CCCCCN(c2nc(OCC34CCCN3CCC4)nc3c(F)c(-c4cccc5cccc(F)c45)ncc23)C1 (stereo not shown) [Example 251, 8-fluoro-7-(8-fluoronaphthalen-1-yl)-2-((hexahydro-1H-pyrrolizin-7a-yl)methoxy)-4-(3-(methylsulfonyl)azocan-1-yl)pyrido[4,3-d]pyrimidine]
- IC50 [10]: 3840 nM
- IC50 [11]: 6250 nM
- IC50 [12]: 3780 nM
- IC50 [4]: 14600 nM
- IC50 [5]: 6830 nM
- IC50 [13]: 6120 nM
- IC50 [14]: 6400 nM
- IC50 [7]: 3870 nM
- IC50 [15]: 5750 nM

Structure (SMILES): O=C1CC(CNc2nc(OCC34CCCN3CCC4)nc3c(F)c(-c4cccc5cccc(Cl)c45)ncc23)CN1 (stereo not shown) [Example 102, 4-(((7-(8-chloronaphthalen-1-yl)-8-fluoro-2-((tetrahydro-1H-pyrrolizin-7a(5H)-yl)methoxy)pyrido[4,3-d]pyrimidin-4-yl)amino)methyl)pyrrolidin-2-one]
- IC50 [10]: 1170 nM
- IC50 [11]: 1180 nM
- IC50 [12]: 769 nM
- IC50 [4]: 479 nM
- IC50 [5]: 2290 nM
- IC50 [13]: 634 nM
- IC50 [14]: 399 nM
- IC50 [7]: 365 nM
- IC50 [15]: 191 nM

Structure (SMILES): Fc1c(-c2cccc3cccc(F)c23)ncc2c(NCc3nnc4ncccn34)nc(OCC34CCCN3CCC4)nc12 [Example 121, N-([1,2,4]triazolo[4,3-a]pyrimidin 3 ylmethyl) 8-fluoro-7-(8-fluoronaphthalen-1-yl)-2-((tetrahydro-1H-pyrrolizin-7a(5H)-yl)methoxy)pyrido[4,3-d]pyrimidin-4-amine]
- IC50 [10]: 13000 nM
- IC50 [11]: 25400 nM
- IC50 [12]: 17300 nM
- IC50 [4]: 12300 nM
- IC50 [5]: 42800 nM
- IC50 [13]: 15500 nM
- IC50 [14]: 9100 nM
- IC50 [7]: 6640 nM
- IC50 [15]: 18600 nM

Structure (SMILES): Cn1cc(CNc2nc(OCC34CCCN3CCC4)nc3c(F)c(-c4cccc5cccc(F)c45)ncc23)ccc1=O [Example 88, 5-(((8-fluoro-7-(8-fluoronaphthalen-1-yl)-2-((hexahydro-1H-pyrrolizin-7a-yl)methoxy)pyrido[4,3-d]pyrimidin-4-yl)amino)methyl)-methylpyridin-2 (1H)-one]
- IC50 [10]: 7170 nM
- IC50 [11]: 14700 nM
- IC50 [12]: 9310 nM
- IC50 [4]: 4370 nM
- IC50 [5]: 30700 nM
- IC50 [13]: 1820 nM
- IC50 [14]: 2510 nM
- IC50 [7]: 2180 nM
- IC50 [15]: 4240 nM

Structure (SMILES): NS(=O)(=O)CC1CN(c2nc(OCC34CCCN3CCC4)nc3c(F)c(-c4cccc5cccc(F)c45)ncc23)CCO1 (stereo not shown) [Example 249, 1-(4-(8-fluoro-7-(8-fluoronaphthalen-1-yl)-2-((tetrahydro-1H-pyrrolizin-7a(5H)-yl)methoxy)pyrido[4,3-d]pyrimidin-4-yl)morpholin-2-yl)methanesulfonamide]
- IC50 [10]: 1060 nM
- IC50 [11]: 808 nM
- IC50 [12]: 1280 nM
- IC50 [4]: 424 nM
- IC50 [5]: 7860 nM
- IC50 [13]: 981 nM
- IC50 [14]: 979 nM
- IC50 [7]: 1290 nM
- IC50 [15]: 742 nM

Structure (SMILES): O=C1NC(=O)C2CN(c3nc(OCC45CCCN4CCC5)nc4c(F)c(-c5cccc6cccc(F)c56)ncc34)CC12 (stereo not shown) [Example 228, 5-(8-fluoro-7-(8-fluoronaphthalen-1-yl)-2-((hexahydro-1H-pyrrolizin-7a-yl)methoxy)pyrido[4,3-d]pyrimidin-4-yl)tetrahydropyrrolo[3,4-c]pyrrole-1,3(2H,3aH)-dione]
- IC50 [10]: 2700 nM
- IC50 [11]: 822 nM
- IC50 [12]: 465 nM
- IC50 [4]: 224 nM
- IC50 [5]: 147 nM
- IC50 [13]: 1210 nM
- IC50 [14]: 1020 nM
- IC50 [7]: 148 nM
- IC50 [15]: 202 nM
